Experimental data published in ChEMBL document CHEMBL1137909, “Synthesis and in vitro evaluation of (S)-2-([11C]methoxy)-4-[3-methyl-1-(2-piperidine-1-yl-phenyl)-butyl-carbamoyl]-benzoic acid ([11C]methoxy-repaglinide): a potential beta-cell imaging agent” (Bioorg Med Chem Lett, 2004).
pIC50, pKd: −log10 of the molar value.

Columns and labels:
[1] = target: T1, ATP-binding cassette sub-family C member 8 (Homo sapiens, UniProt Q09428); assay: Displacement of [3H]glibenclamide from COS-1 cells expressing Sulfonylurea receptor 1 (SUR-1); assay type: cell-based
[2] = target: T1, ATP-binding cassette sub-family C member 8; assay: In vitro displacement of [3H]glibenclamide (IC50=0.61) from COS-1 cells expressing Sulfonylurea receptor 1 (SUR-1); assay type: cell-based
Rattus norvegicus [3] = species on record: Rattus norvegicus; assay: In vitro ability to stimulate insulin was determined at (15 mM glucose); assay type: functional
Rattus norvegicus [4] = species on record: Rattus norvegicus; assay: In vitro ability to stimulate insulin was determined at (5 mM glucose+0.1 uM compound); assay type: functional
Rattus norvegicus [5] = species on record: Rattus norvegicus; assay: Percent stimulation index to stimulate insulin was determined; assay type: functional
Rattus norvegicus [6] = species on record: Rattus norvegicus; assay: Percent relative stimulation index to stimulate insulin was determined; assay type: functional

T1 sequence (Q09428 whole entry): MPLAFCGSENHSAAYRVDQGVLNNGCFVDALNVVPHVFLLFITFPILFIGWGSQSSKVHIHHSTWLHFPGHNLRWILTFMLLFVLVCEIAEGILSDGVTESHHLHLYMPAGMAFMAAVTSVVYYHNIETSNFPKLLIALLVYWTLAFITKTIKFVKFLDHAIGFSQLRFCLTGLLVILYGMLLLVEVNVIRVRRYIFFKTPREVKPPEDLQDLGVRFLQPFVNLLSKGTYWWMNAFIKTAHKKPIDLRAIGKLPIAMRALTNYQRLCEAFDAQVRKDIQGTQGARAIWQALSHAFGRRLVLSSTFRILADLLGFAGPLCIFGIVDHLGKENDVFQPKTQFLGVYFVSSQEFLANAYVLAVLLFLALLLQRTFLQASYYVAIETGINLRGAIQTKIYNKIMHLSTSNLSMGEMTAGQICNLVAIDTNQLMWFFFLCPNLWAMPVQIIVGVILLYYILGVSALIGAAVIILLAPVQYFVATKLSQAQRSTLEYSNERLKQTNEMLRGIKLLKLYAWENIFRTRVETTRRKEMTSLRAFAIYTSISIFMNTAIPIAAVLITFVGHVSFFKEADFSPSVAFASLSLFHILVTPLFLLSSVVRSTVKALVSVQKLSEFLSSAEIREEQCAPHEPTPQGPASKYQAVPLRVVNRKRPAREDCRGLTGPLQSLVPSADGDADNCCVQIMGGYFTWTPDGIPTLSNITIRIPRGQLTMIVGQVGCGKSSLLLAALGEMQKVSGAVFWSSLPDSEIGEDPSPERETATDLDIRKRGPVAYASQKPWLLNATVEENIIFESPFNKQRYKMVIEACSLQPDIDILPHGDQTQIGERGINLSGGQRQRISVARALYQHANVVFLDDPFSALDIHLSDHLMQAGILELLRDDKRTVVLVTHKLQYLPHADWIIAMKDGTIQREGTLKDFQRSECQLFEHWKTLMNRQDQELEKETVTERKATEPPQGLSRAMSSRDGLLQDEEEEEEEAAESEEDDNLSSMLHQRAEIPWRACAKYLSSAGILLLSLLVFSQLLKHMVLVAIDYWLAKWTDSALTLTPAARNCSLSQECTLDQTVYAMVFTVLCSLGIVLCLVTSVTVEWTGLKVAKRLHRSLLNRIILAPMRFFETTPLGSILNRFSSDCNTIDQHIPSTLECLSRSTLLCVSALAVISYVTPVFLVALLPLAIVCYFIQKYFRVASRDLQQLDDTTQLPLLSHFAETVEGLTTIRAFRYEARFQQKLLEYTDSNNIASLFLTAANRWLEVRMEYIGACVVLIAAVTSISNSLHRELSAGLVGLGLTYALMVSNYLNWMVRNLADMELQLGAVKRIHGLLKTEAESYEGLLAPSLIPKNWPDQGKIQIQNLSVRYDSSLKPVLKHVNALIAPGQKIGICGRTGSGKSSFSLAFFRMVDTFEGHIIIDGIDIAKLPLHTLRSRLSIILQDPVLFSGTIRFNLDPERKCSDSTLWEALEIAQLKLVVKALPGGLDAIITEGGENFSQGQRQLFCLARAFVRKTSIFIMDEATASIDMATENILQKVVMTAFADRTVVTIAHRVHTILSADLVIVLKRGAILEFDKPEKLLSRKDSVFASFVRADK

| SMILES | pKd [1] | pIC50 [2] | Insulin release (Rattus norvegicus [3]) | Insulin release (Rattus norvegicus [4]) | Stimulation index (Rattus norvegicus [5]) | Relative stimulation index (Rattus norvegicus [6]) |
| --- | --- | --- | --- | --- | --- | --- |
| CC(C)C[C@H](NC(=O)Cc1ccc(C(=O)O)c(OCCF)c1)c1ccccc1N1CCCCC1 | 6.87 | 6.55 |  |  |  |  |
| COc1cc(CC(=O)N[C@@H](CC(C)C)c2ccccc2N2CCCCC2)ccc1C(=O)O | 7.08 | 6.79 | 4 ng/islet/1h | 2 ng/islet/1h | 2 fold | 64% |
| CCOc1cc(CC(=O)N[C@@H](CC(C)C)c2ccccc2N2CCCCC2)ccc1C(=O)O [REPAGLINIDE] | 7.30 | 6.97 | 4 ng/islet/1h | 2.1 ng/islet/1h | 1.9 fold | 63% |
